# Data reported in US20260109707A1, “HETEROBIFUNCTIONAL COMPOUNDS AND METHODS OF TREATING DISEASE” (Halda Therapeutics OpCo. Inc., priority 2022, published 2026).
# Read-outs that look alike come from different tables or passages of the source.
# Key:
# [1] = system: T-Rex 293 cell line SC3 cells having increased expression of androgen receptor protein due to exposure to doxycycline; experiment: Cellular growth inhibition assay, T-Rex 293 SC3 cells with doxycycline (CellTiter-Glo, 72 hours); format: cell-based; conditions: T-Rex 293 SC3 cells with increased androgen receptor expression due to doxycycline (10 ng/mL)
# Summary of the method: (§1)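 Growth inhibition is measured in an inducible AR-expressing T-Rex 293 clone, SC3, cultured with or without 10 ng/mL doxycycline in hormone-depleted medium. Test compounds are applied for 72 hours. GI50 values derive from CellTiter-Glo 2.0 signal fitted by four-parameter regression.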
# [2] = system: T-Rex 293 cell line SC3 cells lacking increased expression of androgen receptor protein; experiment: Cellular growth inhibition assay, T-Rex 293 SC3 cells without doxycycline (CellTiter-Glo, 72 hours); format: cell-based; conditions: T-Rex 293 cell line SC3 cells not exposed to doxycycline (lacking increased androgen receptor expression)
# Summary of the method: as §1
# [3] = system: VCaP cells; experiment: Cellular growth inhibition assay for VCaP cells (CellTiter-Glo, 72 hours); format: cell-based, human
# Summary of the method: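 Luminescent viability signal after 72 h of compound exposure gave GI50 values by four-parameter nonlinear regression. Compounds were added in 0.5% DMSO to cells plated 24 h earlier at 5000/well in DMEM containing 10% FBS.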
# [4] = system: T47D cells; experiment: Cellular growth inhibition assay for T47D cells (CellTiter-Glo, 72 hours); format: cell-based, human; conditions: 72 hours treatment
# Experimental: T47D cells were purchased from American Type Cell Culture (ATCC Cat #HTB-133) and then seeded on poly-D-lysine coated, black clear-bottom 384-well plates at 3000/well in 25 μL Dulbecco's Modified Eagle Medium (DMEM) supplemented with 10% w/w Fetal bovine serum (FBS), 0.2 units/mL recombinant human insulin (Gibco Cat #12585014), and 1% w/w Pen-Strep. Pen-Strep is a commercially available mixture of penicillin G and streptomycin, which is used in mammalian cell culture media to prevent bacterial contamination. Dulbecco's Modified Eagle Medium (DMEM) supplemented with 10% w/w fetal bovine serum (FBS), 0.2 units/mL recombinant human insulin, and 1% w/w Pen-Strep is herein referred to as Treatment Medium. Following seeding of cells in the plates, the plates were spun at 300×g for 30 seconds, then equilibrated to room temperature for 30 minutes, and then deposited in a humidified tissue culture incubator maintained at 37° C. with 5% CO2.
# At 24 hours after seeding of the cells, dilutions of test compound were prepared in DMSO and dissolved in Treatment Medium, to achieve a final DMSO concentration of 0.5% w/w, thereby providing the Test Compound Solution. A 25 μL aliquot of the Test Compound Solution was added to cells in the well plates. An equal volume of a solution containing DMSO and Treatment Medium was used as a negative control. Following treatment of cells with Test Compound Solution or said equal volume of a solution containing DMSO and Treatment Medium, the plates were spun at 300×g for 30 seconds, and then left in an incubator for 72 hours.
# At the end of the treatment duration, cell viability was quantified with CellTiter-Glo 2.0 reagent (Promega Cat #G9243). For this purpose, plates were equilibrated to room temperature for 30 minutes, and then 25 μL of CellTiter-Glo 2.0 reagent was added to cells in the plate wells. Plates were then agitated on a shaker for two minutes at 500 rpm and subsequently incubated at room temperature for 10 minutes. Following incubation, the plates were spun at 3000×g for 30 seconds, then sealed with an optical adhesive cover, and luminescence readings were measured with an EnVision Plate Reader (Perkin Elmer).
# Data was normalized using zero luminescence for baseline. A four-parameter non-linear regression curve fit was applied to dose-response data in GraphPad Prism data analysis software to determine the half-maximal growth inhibitory concentration (GI50) for each test compound.
SMILES,"GI50 ([3]; Homo sapiens, VCaP, 72 h) [µM]","GI50 ([4]; Homo sapiens, T47D, 72 h) [µM]",GI50 [4] [µM],GI50 [3] [µM],GI50 ([1]; 72 h) [µM],GI50 ([2]; 72 h) [µM],GI50 [2] [µM],GI50 [1] [µM]
CCNC(=O)C[C@@H]1N=C(c2ccc(N3CCC(CN4CCN(c5ccc(C(=O)N[C@H]6CC[C@H](Oc7ccc(C#N)c(Cl)c7)CC6)nn5)CC4)CC3)cc2)c2c(sc(C)c2C)-n2c(C)nnc21 [I-36],< 0.5,0.5 to 1.5,,,< 0.5,0.5 to 1.5,,
CCNC(=O)C[C@@H]1N=C(c2ccc(CN3CCN(c4ccc(C(=O)N[C@H]5CC[C@H](Oc6ccc(C#N)c(Cl)c6)CC5)nn4)CC3)cc2)c2c(sc(C)c2C)-n2c(C)nnc21 [I-38],< 0.5,0.5 to 1.5,,,< 0.5,0.5 to 1.5,,
CCNC(=O)C[C@@H]1N=C(c2ccc(N3CCC(N(C)C4CCN(c5ccc(C(=O)N[C@H]6CC[C@H](Oc7ccc(C#N)c(Cl)c7)CC6)nn5)CC4)CC3)cc2)c2c(sc(C)c2C)-n2c(C)nnc21 [I-43],< 0.5,0.5 to 1.5,,,< 0.5,1.5 to 3,,
CCNC(=O)C[C@@H]1N=C(c2ccc(OCCN(C)c3ccc(C(=O)N[C@H]4CC[C@H](Oc5ccc(C#N)c(Cl)c5)CC4)nn3)cc2)c2c(sc(C)c2C)-n2c(C)nnc21 [I-49],< 0.5,0.5 to 1.5,,,< 0.5,0.5 to 1.5,,
Cc1sc2c(c1C)C(c1ccc(OC3CC4(CCN(c5ccc(C(=O)N[C@H]6CC[C@H](Oc7ccc(C#N)c(Cl)c7)CC6)nn5)CC4)C3)cc1)=NC(Cc1ncco1)c1nnc(C)n1-2 (stereo partly shown) [I-77],< 0.5,1.5 to 3,,,< 0.5,0.5 to 1.5,,
Cc1sc2c(c1C)C(c1ccc(OCCC3CCN(c4ccc(C(=O)N[C@H]5CC[C@H](Oc6ccc(C#N)c(Cl)c6)CC5)nn4)CC3)cc1)=NC(Cc1ncco1)c1nnc(C)n1-2 (stereo partly shown) [I-78],< 0.5,< 0.5,,,< 0.5,< 0.5,,
Cc1sc2c(c1C)C(c1ccc(OC3CC4(CCN(c5ccc(C(=O)N[C@H]6CC[C@H](Oc7ccc(C#N)c(Cl)c7)CC6)nn5)CC4)C3)cc1)=N[C@H](Cc1ncco1)c1nnc(C)n1-2 [I-80],< 0.5,> 3,,,< 0.5,> 3,,
Cc1sc2c(c1C)C(c1ccc(OC3CC4(CCN(c5ccc(C(=O)N[C@H]6CC[C@H](Oc7ccc(C#N)c(Cl)c7)CC6)nn5)CC4)C3)cc1)=N[C@@H](CC#N)c1nnc(C)n1-2 [I-83],< 0.5,< 0.5,,,< 0.5,> 3,,
Cc1sc2c(c1C)C(c1ccc(OC3CC4(CCN(c5ccc(C(=O)N[C@H]6CC[C@H](Oc7ccc(C#N)c(Cl)c7)CC6)cn5)CC4)C3)cc1)=N[C@@H](Cc1ncco1)c1nnc(C)n1-2 [I-88],< 0.5,< 0.5,,,< 0.5,< 0.5,,
Cc1sc2c(c1C)C(c1ccc(OC3CC4(CCN(c5ccc(C(=O)N[C@H]6CC[C@H](Oc7ccc(C#N)c(Cl)c7)CC6)nc5)CC4)C3)cc1)=N[C@@H](Cc1ncco1)c1nnc(C)n1-2 [I-89],< 0.5,< 0.5,,,< 0.5,< 0.5,,
Cc1sc2c(c1C)C(c1ccc(OC3CC4(C3)CN(c3ccc(C(=O)N[C@H]5CC[C@H](Oc6ccc(C#N)c(Cl)c6)CC5)nn3)C4)cc1)=N[C@@H](Cc1ncco1)c1nnc(C)n1-2 [I-91],< 0.5,< 0.5,,,< 0.5,< 0.5,,

# Second part, led by results:
"GI50 ([3]; Homo sapiens, VCaP, 72 h) [µM]","GI50 ([4]; Homo sapiens, T47D, 72 h) [µM]",GI50 [4] [µM],GI50 [3] [µM],SMILES,GI50 ([1]; 72 h) [µM],GI50 ([2]; 72 h) [µM],GI50 [2] [µM],GI50 [1] [µM]
< 0.5,0.5 to 1.5,,,CCNC(=O)C[C@@H]1N=C(c2ccc(N(C)CCN3CCN(c4ccc(C(=O)N[C@H]5CC[C@H](Oc6ccc(C#N)c(Cl)c6)CC5)nn4)CC3)cc2)c2c(sc(C)c2C)-n2c(C)nnc21 [I-35],< 0.5,0.5 to 1.5,,
< 0.5,< 0.5,,,CCNC(=O)C[C@@H]1N=C(c2ccc(OC3CC(OC4CCN(c5ccc(C(=O)N[C@H]6CC[C@H](Oc7ccc(C#N)c(Cl)c7)CC6)nn5)CC4)C3)cc2)c2c(sc(C)c2C)-n2c(C)nnc21 (stereo partly shown) [I-37],< 0.5,< 0.5,,
< 0.5,0.5 to 1.5,,,CCNC(=O)C[C@@H]1N=C(c2ccc(N3CC(N4CCN(c5ccc(C(=O)N[C@H]6CC[C@H](Oc7ccc(C#N)c(Cl)c7)CC6)nn5)CC4)C3)cc2)c2c(sc(C)c2C)-n2c(C)nnc21 [I-40],< 0.5,0.5 to 1.5,,
< 0.5,< 0.5,,,CCNC(=O)C[C@@H]1N=C(c2ccc(N3CCN(C4CN(c5ccc(C(=O)N[C@H]6CC[C@H](Oc7ccc(C#N)c(Cl)c7)CC6)nn5)C4)CC3)cc2)c2c(sc(C)c2C)-n2c(C)nnc21 [I-41],< 0.5,0.5 to 1.5,,
0.5 to 1.5,0.5 to 1.5,,,CCNC(=O)C[C@@H]1N=C(c2ccc(OC3CN(c4ccc(C(=O)N[C@H]5CC[C@H](Oc6ccc(C#N)c(Cl)c6)CC5)nn4)C3)cc2)c2c(sc(C)c2C)-n2c(C)nnc21 [I-47],< 0.5,0.5 to 1.5,,
< 0.5,< 0.5,,,"Cc1sc2c(c1C)C(c1ccc(CCC3CCN(c4ccc(C(=O)NC5CCC(Oc6ccc(C#N)c(Cl)c6)CC5)nn4)CC3)cc1)=N[C@@H](Cc1ncco1)c1nnc(C)n1-2 (stereo partly drawn) [I-74, N-[4-(3-chloro-4-cyano-phenoxy)cyclohexyl]-6-[4-[2-[4-[(9S)-4,5,13-trimethyl-9-(oxazol-2-ylmethyl)-3-thia-1,8,11,12-tetrazatricyclo[8.3.0.02,6]trideca-2(6),4,7,10,12-pentaen-7-yl]phenyl]ethyl]-1-piperidyl]pyridazine-3-carboxamide]",< 0.5,< 0.5,,
< 0.5,< 0.5,,,Cc1sc2c(c1C)C(c1ccc(CCCC3CCN(c4ccc(C(=O)N[C@H]5CC[C@H](Oc6ccc(C#N)c(Cl)c6)CC5)nn4)CC3)cc1)=NC(Cc1ncco1)c1nnc(C)n1-2 (stereo partly shown) [I-75],< 0.5,< 0.5,,
< 0.5,< 0.5,,,Cc1sc2c(c1C)C(c1ccc(OC3CC4(CCN(c5ccc(C(=O)N[C@H]6CC[C@H](Oc7ccc(C#N)c(Cl)c7)CC6)nn5)CC4)C3)cc1)=N[C@@H](Cc1ncco1)c1nnc(C)n1-2 [I-79],< 0.5,< 0.5,,
< 0.5,,> 3,,Cc1sc2c(c1C)C(c1ccc(OC3CN(CC4CCN(c5ccc(C(=O)N[C@H]6CC[C@H](Oc7ccc(C#N)c(Cl)c7)CC6)nn5)CC4)C3)cc1)=N[C@@H](Cc1ncco1)c1nnc(C)n1-2 [I-81],< 0.5,,> 3,
< 0.5,< 0.5,,,Cc1sc2c(c1C)C(c1ccc(OC3CN(CC4CCN(c5ccc(C(=O)N[C@H]6CC[C@H](Oc7ccc(C#N)c(Cl)c7)CC6)nn5)CC4)C3)cc1)=N[C@H](Cc1ncco1)c1nnc(C)n1-2 [I-82],< 0.5,< 0.5,,
< 0.5,< 0.5,,,Cc1sc2c(c1C)C(c1ccc(OC3CC4(CCN(c5ncc(C(=O)N[C@H]6CC[C@H](Oc7ccc(C#N)c(Cl)c7)CC6)cn5)CC4)C3)cc1)=N[C@@H](Cc1ncco1)c1nnc(C)n1-2 [I-84],< 0.5,< 0.5,,
< 0.5,< 0.5,,,Cc1sc2c(c1C)C(c1ccc(OC3CCC4(C3)CN(c3ccc(C(=O)N[C@H]5CC[C@H](Oc6ccc(C#N)c(Cl)c6)CC5)nn3)C4)cc1)=N[C@@H](Cc1ncco1)c1nnc(C)n1-2 (stereo partly shown) [I-85],< 0.5,< 0.5,,
,,< 0.5,< 0.5,Cc1sc2c(c1C)C(c1ccc(OC3CN(CC4CCN(c5ccc(C(=O)N[C@H]6CC[C@H](Oc7ccc(C#N)c(Cl)c7)CC6)nn5)CC4)C3)cc1)=N[C@@H](Cc1ncco1)c1nnc(C)n1-2 [I-87],,,< 0.5,< 0.5
< 0.5,< 0.5,,,Cc1sc2c(c1C)C(c1ccc(O[C@H]3C[C@H](OC4CCN(c5ccc(C(=O)N[C@H]6CC[C@H](Oc7ccc(C#N)c(Cl)c7)CC6)nn5)CC4)C3)cc1)=N[C@@H](Cc1ncco1)c1nnc(C)n1-2 [I-90],< 0.5,< 0.5,,
